Data from patent US20120149724A1, “MODULATING ENDOGENOUS BETA-ENDORPHIN LEVELS” (THE GENERAL HOSPITAL CORPORATION, priority 2009, published 2012).
“Also recorded” adds a separate entry of the source.

Experiments:
[1] = system: chronically UV-irradiated mice; assay: naloxone-induced somatic symptoms of opiate withdrawal after chronic UVB exposure; assay type: in vivo; details: UVB 50 mJ/cm^2/day for 6 weeks, 2 mg/kg sc, counted over 25 minutes
Procedure: To obtain the data shown in FIG. 9, mice were either exposed to 50 mJ/cm^2/day UVB radiation, or mock-exposed 5 days per week for 6 weeks. These two groups of mice were divided into subgroups and either injected with a dose of 2 mg/kg naloxone(sc) or saline. […] The symptoms observed include wet dog shake, paw tremor, jumping, grooming, teeth chatter, rearing and diarrhea.
This example assesses physical dependence to opiate agents by evaluating withdrawal symptoms in mice upon acute administration of an opiate antagonist. In mice, symptoms of opiate withdrawal include shaking vigorously (called a “wet-dog shake”), paw tremors, teeth chattering, jumping, rearing, increased grooming, and diarrhea. The occurrence of these symptoms were measured in mice either exposed to 50 mJ/cm^2/day UVB radiation 5 days per week for 6 weeks or mock-exposed on the same schedule. One subgroup of each group of mice was injected with 2 mg/kg subcutaneous naloxone and number of occurrences of each of the above-mentioned symptoms was counted over 25 minutes immediately following naloxone injection. The other subgroup was administered a subcutaneous injection of saline before the 25-minute observation period.

C57BL/6 male mice = assay: analgesic thresholds (von Frey and hot plate assays) over a tail radiation or mock regimen; assay type: in vivo
Procedure: Example 4 describes analgesic response changes in response to tail-only radiation exposure. To obtain the data shown in FIGS. 4A and 4B, 8-week old male mice were either exposed to a dose of 5 Gy/day gamma radiation or mock exposed for 6 weeks. Mechanical (FIG. 4A) and thermal (FIG. 4B) analgesic thresholds were measured twice per week over the course of the regimen, and for 2 weeks after the regimen. The threshold testing was performed in the morning before the radiation treatment or mock exposure. The mock exposed mice were either injected with saline 15 minutes before the testing, or with 10 mg/kg naloxone 15 minutes before the testing. The radiation treatment group was divided into 2 subgroups. The first group was given saline injections 15 minutes before the testing. The second group was given a 10 mg/kg naloxone injection 15 minutes before the testing. For all groups of mice, blood was drawn once per week for beta-endorphin measurement. Data for FIG. 4A was obtained from C57BL/6 male mice, and there were 10 mice per treatment group. Data for FIG. 4B was obtained from C57BL/6 male mice, and there were 10 mice per treatment group. An asterisk indicates p<0.05 by t-test. FIGS. 4A and 4B show both mechanical and thermal analgesic thresholds increase over the radiation regimen similarly to plasma beta-endorphin fluctuations (Figure C).
In this assay of mechanical nociceptive threshold, mice were placed on an elevated wire mesh grid, and the plantar surface of the left hind paw was poked with fibers calibrated to different pressures. Mice were each poked 10 times at each pressure at a rate of 1/second, starting with the lowest pressure and stopping at the pressure that elicits a positive response for a given mouse, thus indicating the mechanical nociceptive threshold for that mouse. A positive response was 2/10 responses of paw flinching, fluttering, or licking immediately following the poke. These experiments were performed in mice undergoing daily tail radiation or mock tail radiation as follows.
Prior to the start of the tail radiation regimen, mice were habituated over one week by spending 1 hour/day in individual wire mesh cages on the elevated wire mesh grid. In addition, prior to each measurement, mice spent 30 minutes on the wire mesh grid to habituate before measurements were taken. Two measurements of baseline thresholds were taken on two different days prior to the start of the radiation regimen. During the radiation regimen and for 2 weeks following the end of the regimen, mice were tested twice per week on two different, non-consecutive days. Mice receiving mock treatment and 1 subgroup of mice receiving tail radiation were injected with saline (ip) 15 minutes prior to testing. […]

## C=CCN1CC[C@]23c4c5ccc(O)c4O[C@H]2C(=O)CC[C@@]3(O)[C@H]1C5 [naloxone]
[1]
  jumping behavior: only group to show any jumping behavior at all
[1]; compared to all other groups
  occurrences of wet dog shakes, teeth chattering, paw tremoring, grooming and rearing: significantly more
C57BL/6 male mice; mock-exposed mice, 10 mg/kg, compared to mock-exposed, saline-treated mice
  sensitivity to mechanical and thermal stimuli: increased sensitivity to mechanical and thermal stimuli
C57BL/6 male mice; tail-irradiated mice 5 Gy/day for 6 weeks, 10 mg/kg 15 minutes before testing, 10 mg/kg
  effect on radiation-induced changes in mechanical and thermal analgesic thresholds: prevented; also recorded: prevents changes in analgesic thresholds
C57BL/6 male mice; tail-irradiated mice, 10 mg/kg 15 minutes before testing, as the radiation regimen progressed
  sensitivity to mechanical and thermal stimuli: increased sensitivity to both mechanical and thermal stimuli
C57BL/6 male mice; tail-irradiated mice, upon naloxone injection, 10 mg/kg
  other withdrawal phenotypes (jumping, wet-dog shaking, teeth chattering, diarrhea): not observed acutely
